Data published in US20140350081A1, “INSECT G-COUPLED RECEPTORS USEFUL AS TARGETS FOR INSECTICIDES AND COMPOUNDS AND REAGENTS IDENTIFIED USING THE SAME” (priority 2011, published 2014).

Experiments:
Type in all cases: cell-based
Isdop2 [1] = molecular target: T1, Isdop2 (Ixodes scapularis, UniProt A0ACM8DGL0); test: CRE-Luc reporter assay, HEK cells stably expressing Isdop2
Isdop1 [2] = molecular target: T2, Isdop1 (Ixodes scapularis, UniProt A0ACM8FJJ0); test: CRE-Luc reporter assay, HEK cells stably expressing Isdop1
AaDOP2 [3] = molecular target: T3, AaDOP2 (Aedes aegypti, UniProt H6D5H2); test: CRELuc reporter dose-response in HEK293 cells stably expressing AaDOP2; conditions: for EC50: HEK293 cells stably expressing CRELuc reporter and AaDOP2, ≧10 μM = lacks intrinsic activity, read-out: EC50 values AaDOP2
AaDOP2 [4] = molecular target: T3, AaDOP2; test: AaDOP2 agonist screen against the LOPAC1280 library; conditions: 10 μM compound; percent of response to 1 μM dihydrexidine
Isdop1 [5] = molecular target: T2, Isdop1; test: cAMP accumulation in HEK 293 cells transiently expressing Isdop1; conditions: for Stimulatory response (fold-over-basal) Isdop1: 10 μM biogenic amine, 300 nM propranolol, cAMP accumulation, mean±standard error; for intracellular cAMP compared to basal, Isdop1: 10 μM agonist, transient expression
Isdop2 [6] = molecular target: T1, Isdop2; test: cAMP accumulation in HEK 293 cells transiently expressing Isdop2; conditions: for Stimulatory response (fold-over-basal) Isdop2: 10 μM biogenic amine, 300 nM propranolol, cAMP accumulation, mean±standard error; for increase in cAMP, Isdop2: 10 μM agonist, transient expression
AaDOP1 = AaDOP1 (Aedes aegypti, UniProt H6D5H1); test: CRELuc reporter dose-response in HEK293 cells stably expressing AaDOP1; conditions: HEK293 cells stably expressing CRELuc reporter and AaDOP1
AaDOP1, sequence (H6D5H1 entry or part of it): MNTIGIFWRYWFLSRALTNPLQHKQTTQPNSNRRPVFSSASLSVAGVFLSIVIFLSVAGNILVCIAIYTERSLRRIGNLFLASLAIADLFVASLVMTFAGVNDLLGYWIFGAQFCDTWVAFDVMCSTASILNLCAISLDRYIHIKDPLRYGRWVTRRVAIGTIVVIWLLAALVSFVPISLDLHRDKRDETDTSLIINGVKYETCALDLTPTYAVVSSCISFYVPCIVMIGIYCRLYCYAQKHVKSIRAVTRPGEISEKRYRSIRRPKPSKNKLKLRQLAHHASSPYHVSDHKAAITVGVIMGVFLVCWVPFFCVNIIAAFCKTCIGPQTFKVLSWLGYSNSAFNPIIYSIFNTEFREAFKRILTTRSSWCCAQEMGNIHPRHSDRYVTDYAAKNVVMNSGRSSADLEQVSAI

T1 sequence (A0ACM8DGL0 entry or part of it): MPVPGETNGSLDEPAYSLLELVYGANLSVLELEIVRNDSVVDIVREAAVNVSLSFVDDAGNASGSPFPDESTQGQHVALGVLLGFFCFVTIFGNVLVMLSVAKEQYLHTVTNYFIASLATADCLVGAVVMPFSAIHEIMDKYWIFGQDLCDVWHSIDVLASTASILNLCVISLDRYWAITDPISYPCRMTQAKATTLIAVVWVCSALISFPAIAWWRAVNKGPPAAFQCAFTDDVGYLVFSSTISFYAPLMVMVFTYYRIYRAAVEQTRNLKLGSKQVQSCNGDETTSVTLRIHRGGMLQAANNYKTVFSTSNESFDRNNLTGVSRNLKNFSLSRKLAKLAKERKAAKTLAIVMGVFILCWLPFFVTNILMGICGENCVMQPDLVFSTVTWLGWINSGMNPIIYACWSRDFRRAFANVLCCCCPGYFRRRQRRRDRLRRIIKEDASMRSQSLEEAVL
T3 sequence (H6D5H2 entry or part of it): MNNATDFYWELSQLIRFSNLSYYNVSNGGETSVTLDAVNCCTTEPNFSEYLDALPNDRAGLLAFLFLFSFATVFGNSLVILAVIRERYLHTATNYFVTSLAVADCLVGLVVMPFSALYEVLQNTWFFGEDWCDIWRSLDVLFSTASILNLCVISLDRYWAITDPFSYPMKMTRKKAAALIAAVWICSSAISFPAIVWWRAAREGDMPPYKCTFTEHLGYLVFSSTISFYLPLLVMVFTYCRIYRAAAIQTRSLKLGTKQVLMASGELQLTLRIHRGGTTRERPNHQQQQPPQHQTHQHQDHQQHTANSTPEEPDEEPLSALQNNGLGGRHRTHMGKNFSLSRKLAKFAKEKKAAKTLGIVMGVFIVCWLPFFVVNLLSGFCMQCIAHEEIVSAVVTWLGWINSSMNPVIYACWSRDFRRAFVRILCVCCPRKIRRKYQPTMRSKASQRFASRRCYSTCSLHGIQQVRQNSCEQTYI

| Compound | % of DHX (AaDOP2 [4]) [%] | Stimulatory response (fold-over-basal) Isdop1 (Isdop1 [5]) [fold-over-basal] | Stimulatory response (fold-over-basal) Isdop2 (Isdop2 [6]) [fold-over-basal] | intracellular cAMP compared to basal, Isdop1 (Isdop1 [5]) | EC50 (AaDOP1) [nM] | EC50 (AaDOP2 [3]) [nM] | increase in cAMP, Isdop2 (Isdop2 [6]) | also measured |
| --- | --- | --- | --- | --- | --- | --- | --- | --- |
| CNC[C@H](O)c1ccc(O)c(O)c1 [Epinephrine] | 90 | – | – | – | – | – | – | EC50 (Isdop2 [1]): 3500 ± 1000 nM; EC50 (Isdop1 [2]): 1900 ± 300 nM; behaviour at the AaDOP2 receptor in follow up CRCs (AaDOP2 [3]; HEK 293-CRELuc cells, FIG. 21A): partial agonists |
| NCCc1c[nH]cn1 [Histamine] | – | 1.02 ± 0.10 | 1.55 ± 0.28 | – | – | – | – | – |
| Oc1cc2c(cc1O)C(c1ccccc1)CNCC2 (centres unmarked) [SKF 38393] | < 10 | – | – | modest, yet significant increases | 310 ± 46 | ≥ 10000 | ca. two-fold-over-basal | – |
| Oc1cc2c(c(Cl)c1O)CCNCC2c1ccccc1 (centres unmarked) [SKF 81297] | 38 | – | – | modest, yet significant increases | 24 ± 7 | ≥ 10000 | ca. two-fold-over-basal | – |
| NCCc1c[nH]c2ccc(O)cc12 [Serotonin, 5-hydroxytryptamine] | – | 1.06 ± 0.08 | 1.52 ± 0.20 | – | – | – | – | – |
| NCCc1ccc(O)cc1 [Tyramine] | – | 1.34 ± 0.11 | 1.27 ± 0.22 | – | – | – | – | – |
